“Also recorded” adds a separate entry of the source.
Tests used:
adipocytes [1] = test: LIVE/DEAD calcein/ethidium bromide assay, adipocyte kill rate; type: cell-based, human; conditions: for Adipocyte, averaged ethidium numbers: kill rate (ethidium), all tissue types on the same plate; for adipocyte kill rate / aggressiveness: Example 2, FIGS. 5-8 and table
Method: (§1) The time and concentration dependent effects of drug substance on both cell viability and toxicity were evaluated using a two-color fluorescence assay that measures plasma membrane integrity and intracellular enzyme activity. Live cells are determined by the strong fluorescence of calcein AM upon enzymatic conversion. […] The ratio of ethidium to calcein fluorescence is an excellent measure of the relative amount of live and dead cells.
(§2) Initial screening was performed using a variety of cell viability and cytotoxicity assays, including Presto Blue® (Invitrogen, Grand Island, N.Y.), Alamar Blue® (Invitrogen, Grand Island, N.Y.), Cyto-Tox One® (Promega, Madison, Wis.), and Cell Titer Glo® (Promega, Madison, Wis.). […] An MTT terazolium assay was performed, as well as LDH and ATP based assays. […] The LIVE/DEAD® for mammalian cells assay was used. LIVE/DEAD® for mammalian cells assay is a calcein (live read)/ethidium bromide (dead) multiplex assay.
(§3) A sample of DMSO/PBS was a negative control. A sample of Aqualyx® was a positive control. In the table, 24M is phosphatidylcholine 25 mg/ml plus deoxycholate 12 mg/and 25N is C 50/DC24; these were positive controls. The numbers in the table refer to averaged ethidium numbers. The percentages represent the relative kill rate for each cell type when rated against the adipocyte kill rate for that compound. All tissue types were tested on the same plate against adipocytes in order to standardize results.
(§4) Over seventy compounds of the embodiments were tested for adipocytolysis, then for tissue preference. A consistent assay with multiplex information was a calcein/ethidium bromide assay that assesses cell viability and cell death simultaneously. Cell viability was checked using the Countess device. All plates were inoculated with 100 microliters of the appropriate cell types. A 6 well repeat was used to verify results. Cell types used included cultured human adult derived adipocytes, dermal fibroblasts, skeletal muscle cells, and endothelial cells (Cell Applications, Inc., San Diego, Calif.). Human peripheral nerve cells (Innoprot, Spain) were also used.
(§5) Compounds were formulated using a DMSO/PBS excipient. A 10 mg/ml concentration was used. One hundred microliters of test compound was inserted into 6 wells of 5 cell types, placed in adjacent rows. The plates were incubated for 4 hours. Indicator was added to each well, and plates were read at 45 minutes using a fluorescence spectrophotometer (Molecular Devices, Sunnyvale, Calif.).

dermal fibroblasts = type: cell-based; conditions: for Dermis, averaged ethidium numbers: kill rate (ethidium), same plate as adipocytes; for Dermis, relative kill rate rated against the adipocyte kill rate: percentage in brackets; for toxicity to dermis / dermal fibroblasts: Example 2, FIGS. 6-8
Method: as §1, §2, §3, §4, §5

nerve cells = type: cell-based; conditions: for Nerve, averaged ethidium numbers: kill rate (ethidium), same plate as adipocytes; for Nerve, relative kill rate rated against the adipocyte kill rate: percentage in brackets; for toxicity to nerve cells: Example 2, FIGS. 6-8
Method: as §1, §2, §3, §4, §5

skeletal muscle cells = test: LIVE/DEAD calcein/ethidium bromide assay, muscle cell kill rate; type: cell-based, human; conditions: for Muscle, averaged ethidium numbers: kill rate (ethidium), same plate as adipocytes; for Muscle, relative kill rate rated against the adipocyte kill rate: percentage in brackets
Method: as §1, §2, §3, §4, §5

endothelial cells = test: LIVE/DEAD calcein/ethidium bromide assay, endothelial cell kill rate; type: cell-based, human; conditions: for Endothelial, averaged ethidium numbers: kill rate (ethidium), same plate as adipocytes; for Endothelial, relative kill rate rated against the adipocyte kill rate: percentage in brackets
Method: as §1, §2, §3, §4, §5

[2] = test system: adipocytes over nerve cells, dermal cells, muscle cells, and endothelial cells; test: LIVE/DEAD assay, tissue preference (adipocytes versus other cell types); type: cell-based, human; conditions: for tissue specificity / tissue preference: Example 2, FIGS. 5-8 and table, 2 and 5 hours in FIGS. 6-8; for tissue preference for adipocytes: Example 2
adipocytes [3] = test: Histology of injected immediate ex-vivo abdominoplasty tissue; type: cell-based, human; conditions: at 1 hour
Method: As the indole group has not been previously used for intralesional fat reduction, a method of obtaining histologic specimens had to be modified.
The tissue model described herein, therefore, was immediate ex-vivo abdominoplasty tissue that had been permitted for use by the surgical patient. Segments of abdominal skin and subcutaneous fat were injected with identified test compounds, plus a negative saline control and three positive controls: 1% deoxycholate, the commercial preparation of Aqualyx®, and the Network Lipolysis PC/DC formula.
Because there was no host; inflammatory changes would not be expected. This study was only performed to assess the immediacy of adipocyte changes, and to determine the method of action of each compound.

## O=Cc1c[nH]c2ccccc12 [Compound 1, 1H-indole-3-carbaldehyde]
Adipocytes [1]
  Adipocyte, averaged ethidium numbers: 53
Dermal fibroblasts
  Dermis, averaged ethidium numbers: 56
Nerve cells
  Nerve, averaged ethidium numbers: 60
Skeletal muscle cells
  Muscle, averaged ethidium numbers: 82
Endothelial cells
  Endothelial, averaged ethidium numbers: 98
[2]
  tissue specificity / tissue preference: no preference

## O=Cc1cc2ccccc2[nH]1 [Compound 2, 1H-indole-2-carbaldehyde]
Adipocytes [1]
  adipocyte kill rate / aggressiveness: aggressive; also recorded: most aggressive
  Adipocyte, averaged ethidium numbers: 360
Dermal fibroblasts
  Dermis, averaged ethidium numbers: 101
  Dermis, relative kill rate rated against the adipocyte kill rate: 28%
Nerve cells
  Nerve, averaged ethidium numbers: 124
  Nerve, relative kill rate rated against the adipocyte kill rate: 39%
Skeletal muscle cells
  Muscle, averaged ethidium numbers: 93
  Muscle, relative kill rate rated against the adipocyte kill rate: 26%
Endothelial cells
  Endothelial, averaged ethidium numbers: 116
  Endothelial, relative kill rate rated against the adipocyte kill rate: 32%
[2]
  tissue specificity / tissue preference: most strongly tissue preferential; also recorded: high specificity
Adipocytes [3]
  histology finding / mechanism of action: more cytolysis than apoptosis

## O=Cc1ccc2[nH]ccc2c1 [Compound 3, 1H-indole-5-carbaldehyde]
Adipocytes [1]
  Adipocyte, averaged ethidium numbers: 42.5
Dermal fibroblasts
  Dermis, averaged ethidium numbers: 26.5
  Dermis, relative kill rate rated against the adipocyte kill rate: 62%
Nerve cells
  Nerve, averaged ethidium numbers: 26
  Nerve, relative kill rate rated against the adipocyte kill rate: 61%
Skeletal muscle cells
  Muscle, averaged ethidium numbers: 25
  Muscle, relative kill rate rated against the adipocyte kill rate: 59%
Endothelial cells
  Endothelial, averaged ethidium numbers: 25
  Endothelial, relative kill rate rated against the adipocyte kill rate: 59%
[2]
  tissue specificity / tissue preference: moderate preference

## O=Cc1cccc2cc[nH]c12 [Compound 4, 1H-indole-7-carbaldehyde]
Adipocytes [1]
  adipocyte kill rate / aggressiveness: less aggressive
  Adipocyte, averaged ethidium numbers: 127
Dermal fibroblasts
  Dermis, averaged ethidium numbers: 79
  Dermis, relative kill rate rated against the adipocyte kill rate: 62%
Nerve cells
  Nerve, averaged ethidium numbers: 66
  Nerve, relative kill rate rated against the adipocyte kill rate: 52%
Skeletal muscle cells
  Muscle, averaged ethidium numbers: 99
  Muscle, relative kill rate rated against the adipocyte kill rate: 78%
Endothelial cells
  Endothelial, averaged ethidium numbers: 86
  Endothelial, relative kill rate rated against the adipocyte kill rate: 63%
[2]
  tissue preference for adipocytes: about 50%
  tissue specificity / tissue preference: shows specificity for adipocyte killing

## O=Cc1cccc2[nH]ccc12 [Compound 5, 1H-indole-4-carbaldehyde]
Adipocytes [1]
  Adipocyte, averaged ethidium numbers: 36
Dermal fibroblasts
  toxicity to dermis / dermal fibroblasts: late dermal spike
  Dermis, averaged ethidium numbers: 17
  Dermis, relative kill rate rated against the adipocyte kill rate: 47%
Nerve cells
  toxicity to nerve cells: more nerve preservation
  Nerve, averaged ethidium numbers: 17
  Nerve, relative kill rate rated against the adipocyte kill rate: 47%
Skeletal muscle cells
  Muscle, averaged ethidium numbers: 27
  Muscle, relative kill rate rated against the adipocyte kill rate: 75%
Endothelial cells
  Endothelial, averaged ethidium numbers: 16
  Endothelial, relative kill rate rated against the adipocyte kill rate: 44%
[2]
  tissue preference for adipocytes: about 50%

## O=Cc1c[nH]c2c3c(ccc12)CCC3 [Compound 7, 1,6,7,8-tetrahydrocyclopenta[g]indole-3-carbaldehyde]
Adipocytes [1]
  Adipocyte, averaged ethidium numbers: 196
Dermal fibroblasts
  Dermis, averaged ethidium numbers: 103
  Dermis, relative kill rate rated against the adipocyte kill rate: 53%
Nerve cells
  Nerve, averaged ethidium numbers: 56
  Nerve, relative kill rate rated against the adipocyte kill rate: 30%
Skeletal muscle cells
  Muscle, averaged ethidium numbers: 119
  Muscle, relative kill rate rated against the adipocyte kill rate: 61%
Endothelial cells
  Endothelial, averaged ethidium numbers: 69
  Endothelial, relative kill rate rated against the adipocyte kill rate: 35%
[2]
  tissue specificity / tissue preference: not tissue preference

## O=C(O)CCCc1c[nH]c2ccccc12 [Compound 10, 4-(1H-indol-3-yl) butanoic acid]
Adipocytes [1]
  adipocyte kill rate / aggressiveness: most aggressive
  Adipocyte, averaged ethidium numbers: 45
Dermal fibroblasts
  Dermis, averaged ethidium numbers: 10
  Dermis, relative kill rate rated against the adipocyte kill rate: 22%
Nerve cells
  Nerve, averaged ethidium numbers: 12
  Nerve, relative kill rate rated against the adipocyte kill rate: 27%
Skeletal muscle cells
  Muscle, averaged ethidium numbers: 13
  Muscle, relative kill rate rated against the adipocyte kill rate: 29%
Endothelial cells
  Endothelial, averaged ethidium numbers: 16.5
  Endothelial, relative kill rate rated against the adipocyte kill rate: 37%

## O=C(O)c1cccc2[nH]ccc12 [Compound 27, 1H-indole-4-carboxylic acid]
[2]
  tissue specificity / tissue preference: high specificity

## O=C(O)c1ccc2[nH]ccc2c1 [Compound 28, 1H-indole-5-carboxylic acid]
Adipocytes [1]
  adipocyte kill rate / aggressiveness: high kill rate
[2]
  tissue specificity / tissue preference: high specificity

## O=C(O)c1c[nH]c2ccccc12 [Compound 30, 1H-indole-3-carboxylic acid]
[2]
  tissue preference for adipocytes: about 50%

## O=C(O)c1cc2cc(Br)ccc2[nH]1 [Compound 40, 5-bromo-1H-indole-2-carboxylic acid]
Adipocytes [1]
  adipocyte kill rate / aggressiveness: moderate
  Adipocyte, averaged ethidium numbers: 123
Dermal fibroblasts
  Dermis, averaged ethidium numbers: 33
  Dermis, relative kill rate rated against the adipocyte kill rate: 27%
Nerve cells
  Nerve, averaged ethidium numbers: 61
  Nerve, relative kill rate rated against the adipocyte kill rate: 50%
Skeletal muscle cells
  Muscle, averaged ethidium numbers: 36
  Muscle, relative kill rate rated against the adipocyte kill rate: 29%
Endothelial cells
  Endothelial, averaged ethidium numbers: 40
  Endothelial, relative kill rate rated against the adipocyte kill rate: 33%
[2]
  tissue specificity / tissue preference: most strongly tissue preferential; also recorded: tissue specificity at two time points; also recorded: high specificity

## O=Cc1c[nH]c2cccc(OCc3ccccc3)c12 [Compound 43, 4-(benzyloxy)-1H-indole-3-carbaldehyde]
Adipocytes [1]
  adipocyte kill rate / aggressiveness: aggressive; also recorded: adipolytic
  Adipocyte, averaged ethidium numbers: 340
Dermal fibroblasts
  toxicity to dermis / dermal fibroblasts: low kill rate
  Dermis, averaged ethidium numbers: 74
  Dermis, relative kill rate rated against the adipocyte kill rate: 22%
Nerve cells
  toxicity to nerve cells: low kill rate
  Nerve, averaged ethidium numbers: 58
  Nerve, relative kill rate rated against the adipocyte kill rate: 17%
Skeletal muscle cells
  Muscle, averaged ethidium numbers: 73
  Muscle, relative kill rate rated against the adipocyte kill rate: 21%
Endothelial cells
  Endothelial, averaged ethidium numbers: 92.5
  Endothelial, relative kill rate rated against the adipocyte kill rate: 27%
[2]
  tissue specificity / tissue preference: most strongly tissue preferential

## O=Cc1c[nH]c2cc(OCc3ccccc3)ccc12 [Compound 44, 6-(benzyloxy)-1H-indole-3-carbaldehyde]
Adipocytes [1]
  Adipocyte, averaged ethidium numbers: 218
Dermal fibroblasts
  Dermis, averaged ethidium numbers: 134
  Dermis, relative kill rate rated against the adipocyte kill rate: 61%
Nerve cells
  Nerve, averaged ethidium numbers: 103
  Nerve, relative kill rate rated against the adipocyte kill rate: 47%
Skeletal muscle cells
  Muscle, averaged ethidium numbers: 172
  Muscle, relative kill rate rated against the adipocyte kill rate: 79%
Endothelial cells
  Endothelial, averaged ethidium numbers: 129
  Endothelial, relative kill rate rated against the adipocyte kill rate: 59%
[2]
  tissue preference for adipocytes: about 50%
  tissue specificity / tissue preference: not as specific as the other compounds tested in this group

## O=C(O)[C@H]1Cc2c([nH]c3ccccc23)[C@@H](c2ccc(O)cc2O)N1 [Compound 78, (1R,3R)-1-(2,4-dihydroxyphenyl)-2,3,4,9-tetrahydro-1H-pyrido [3,4-b]indole-3-carboxylic acid]
Adipocytes [1]
  Adipocyte, averaged ethidium numbers: 29.5
Dermal fibroblasts
  Dermis, averaged ethidium numbers: 8.3
  Dermis, relative kill rate rated against the adipocyte kill rate: 28%
Skeletal muscle cells
  Muscle, averaged ethidium numbers: 8.7
  Muscle, relative kill rate rated against the adipocyte kill rate: 29%
Endothelial cells
  Endothelial, averaged ethidium numbers: 9.8
  Endothelial, relative kill rate rated against the adipocyte kill rate: 33%
[2]
  tissue specificity / tissue preference: high specificity

From US10653670B2, “Use of indole compounds for fat reduction and skin and soft tissue tightening” (Alevere Medical Corporation, priority 2013, dated 2020)
